Tests used:
Type in all cases: cell-based, human
[1] = tested on: GTP-bound and activated RAS (Ras-GTP) protein; assay: G-LISA Ras activation assay in skin fibroblasts after EGF stimulation upon Ataluren treatment; conditions: skin fibroblasts of neurofibromatosis patients (NF1 stop codon mutation) with increased Ras activity compared to normal individuals; Ataluren 20 μg/ml and 30 μg/ml (FIG. 3: 30 μg/ml); EGF 100 ng/ml
Protocol: The skin fibroblasts from donated normal individuals and neurofibromatosis patients were cultured in a DMEM supplemented with 10% FBS and 1% penicillin-streptomycin. When the cells were cultured until the density reached 70% to 80% of a container, the medium was replaced with an FBS-free medium, and the cells were cultured and subjected to a starvation process for 24 hours. Next, the cells were transferred to an FBS-containing medium, treated with epidermal growth factor (EGF), which is a Ras activator, by dilution to a concentration of 100 ng/ml, and then allowed for a reaction at 37° C. for 5 minutes to prepare each sample. To analyze the activity of the RAS proteins, a G-LISA Ras activation assay biochem Kit of Cytoskeleton Company (Absorbance Based) (Cytoskeleton, Cat No. BK131), which enables the measurement of a small number of cells and a large number of cells at the same time by compensating for the disadvantages of the pull-down assay, was used.
Briefly, in a method of analyzing the activity of the RAS proteins, cells were lysed by using a cell lysis solution included in the kit after treatment with EGF, only the supernatant was obtained, and the proteins contained in the supernatant were quantified. […] Next, an HRP detection reagent was added and a reaction was allowed for 15 minutes at room temperature to measure the absorbance at 490 nm. […]

[2] = tested on: phosphorylated ERK (p-ERK); assay: Electrophoresis comparison of p-ERK expression in fibroblasts upon Ataluren treatment (FIG. 4); conditions: Ataluren 20 μg/ml or 30 μg/ml, electrophoresis (FIG. 4); for expression of p-ERK: fibroblasts of neurofibromatosis patients in which the activity of Ras proteins has been decreased
Protocol: (§1) The skin fibroblasts from donated normal individuals and neurofibromatosis patients were treated with Ataluren at concentrations of 20 μg/ml and 30 μg/ml and cultured, in a DMEM supplemented with 10% FBS and 1% penicillin-streptomycin. When the cells were cultured until the density reached 70% to 80% of a container, the medium was replaced with an FBS-free medium, and the cells were cultured and underwent a starvation process for 24 hours. Next, the cells were transferred to an FBS-containing medium, treated with EGF, which is a Ras activator, by dilution to a concentration of 100 ng/ml, and then allowed for a reaction at 37° C. for 5 minutes to prepare each sample. Measurement of the activity of Ras proteins in each sample was performed in the same manner as described in Example 2.
(§2) The same protein of which the Ras activity was measured in Example 3 was subjected to electrophoresis by using NuPAGETM 4-12% Bris-Tris Gel (Invitrogen).

p-ERK protein = assay: Expression ratios of ERK and p-ERK on membrane with ERK and p-ERK antibodies (FIG. 5); conditions: Ataluren 20 μg/ml or 30 μg/ml (FIG. 5)
Protocol: as §1, §2
To more accurately compare the ERK activity, the electrophoresed proteins were transferred to a hybond-ECL membrane, and the membrane was blocked with 3% skim milk. Next, ERK and p-ERK antibodies were reacted on the membrane at 4° C. for 24 hours, and then washed by using TBST three times. […] The expression ratios of ERK and p-ERK in the washed membrane were measured.

[3] = fibroblasts of normal individuals

## O=C(O)c1cccc(-c2noc(-c3ccccc3F)n2)c1 [Ataluren, 3-[5-(2-fluoro-phenyl)-[1,2,4]oxadiazol-3-yl]-benzoic acid]
[1]
  signal of Ras-GTP (activity of Ras proteins): significantly decreased
[2]
  expression of p-ERK: decreased
[2]; listed as ataluren
  expression of p-ERK: significantly decreased
[2]; [3]
  expression of phosphorylated ERK (p-ERK): no change
p-ERK protein; fibroblasts of neurofibromatosis patients in which the activity of Ras proteins has been decreased
  expression of p-ERK (expression ratios of ERK and p-ERK): decreased
p-ERK protein; [3]
  expression level of p-ERK protein (expression ratios of ERK and p-ERK): slightly increased
